Data on eleven compounds can be found in patent publication US20230391772A1, “METHODS AND COMPOSITIONS FOR TARGETED PROTEIN DEGRADATION” (Ranok Therapeutics (Hangzhou) Co. Ltd., priority 2020, published 2023).

Assay [1] relates to NCI-H23 human non-small cell lung cancer. As to the kind of experiment: NCI-H23 CCK-8 proliferation assay. Particulars: NCI-H23 cells, 72 hr. The class given is cell-based. The protocol: The following cancer cell lines were employed: BT-474 human breast carcinoma (ATCC, #HTB-20); MIA PaCa-2 human pancreatic carcinoma [2 copies KRAS(G12C)](ATCC, #CRL-1420); NCI-H23 human non-small cell lung cancer [1 copy KRAS(G12C)](ATCC, #CRL-5800); NCI-H358 human non-small cell lung cancer [1 copy KRAS(G12C)](ATCC, #CRL-5807); LU65A human lung carcinoma (Pharmaron, Beijing, China). Cell lines were cultured essentially according to ATCC and Pharmaron recommendations.
Cancer Cell Line Proliferation (CCK-8) Assays
3-fold serial dilutions of each test compound were prepared ranging from 20 μM to 1.02 nM.
% Inhibition=100−(D−B)/(S−B)*100%. • S: Absorbance of cells treated with DMSO • D: Absorbance of compound-treated cells • B: Absorbance of medium with DMSO without cells
Background: Tetrazolium assays rely on reduction of a dye to a coloured formazan, in cell work by metabolically active cells.

Assay [2] has as its system NCI-H358 human non-small cell lung cancer. As to the kind of experiment: NCI-H358 CCK-8 proliferation assay. The class given is cell-based. Conditions: NCI-H358 cells, 72 hr. In outline: (§1)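 Three KRAS(G12C) lines are used, MIA PaCa-2 at two mutant copies and the NSCLC lines NCI-H358 and NCI-H23 at one. Each compound is titrated 3-fold from 20 μM to 1.02 nM, and proliferation is scored by CCK-8.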

In a further assay the target is T1, HSP90a protein (Homo sapiens, UniProt P07900).
T1 construct: purchased BPS Bioscience 50298
The assay is described as follows: HSP90α-binding fluorescent polarization (FP) assay, BODIPY-labeled RNK04010 probe. Particulars: FP competition with RNK04010 (BODIPY-labeled), 5 nM, 300 min at 25° C. An outline of the steps:
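Test compounds (2.5-fold serial dilution, 20 μM to 5.2 nM) competed with a fluorescent tracer for N-terminal HSP90a, with fluorescence polarization as the read-out. FITC-geldanamycin tracer was used at 5 nM final with 120 min incubation at 25° C; BODIPY-labeled RNK04010 was used at 5 nM final with 300 min incubation.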

For assay [3], the system named is MIA PaCa-2 human pancreatic carcinoma. The assay is described as follows: MIA PaCa-2 CCK-8 proliferation assay. The class given is cell-based. Conditions: Homo sapiens, MIA PaCa-2, 72 h, MIA PaCa-2 cells. In outline: as §1

As usually defined, the EC50 is the midpoint of the concentration-response curve. A low value points to greater potency. Broadly, the IC50 is the point on the concentration scale where inhibition reaches its midpoint. A low value points to greater potency. As to `CC(=O)N1CCN(c2nc(NCCC(=O)N3CCC(CN4CCN(Cc5ccc(-n6c(O)nnc6-c6cc(C(C)C)c(O)cc6O)cc5)CC4)CC3)nc3c2CCN(c2cc(O)cc4ccccc24)C3)CC1` [Compound 21, 3-((4-(4-acetylpiperazin-1-yl)-7-(3-hydroxynaphthalen-1-yl)-5,6,7,8-tetrahydropyrido[3,4-d]pyrimidin-2-yl)amino)-1-(4-((4-(4-(3-(2,4-dihydroxy-5-isopropylphenyl)-5-hydroxy-4H-1,2,4-triazol-4-yl)benzyl)piperazin-1-yl)methyl)piperidin-1-yl)propan-1-one, trifluoroacetic acid], the EC50 in assay [1], in assay [2] and in assay [3] was 100 to 1000 nM each time. Moreover, the IC50 at HSP90a protein is < 100 nM.
Regarding `C=CC(=O)N1CCN(c2nc(NCCC(=O)N3CCC(CN4CCN(Cc5ccc(-n6c(C(N)=O)nnc6-c6cc(CC)c(O)cc6O)cc5)CC4)CC3)nc3c2CCN(c2cccc4ccccc24)C3)C[C@H]1CC#N` [Compound 98, (R)-4-(4-((4-((1-(3-((4-(4-acryloyl-3-(cyanomethyl)piperazin-1-yl)-7-(naphthalen-1-yl)-5,6,7,8-tetrahydropyrido[3,4-d]pyrimidin-2-yl)amino)propanoyl)piperidin-4-yl)methyl)piperazin-1-yl)methyl)phenyl)-5-(5-ethyl-2,4-dihydroxyphenyl)-4H-1,2,4-triazole-3-carboxamide, trifluoroacetic acid], the EC50 in assay [1] and in assay [2] was 100 to 1000 nM throughout. Further, the IC50 at HSP90a protein was < 100 nM.
On to `C=CC(=O)N1CCN(c2nc(NCCC(=O)N3CCC(CN4CCN(Cc5ccc(-n6c(C(N)=O)nnc6-c6cc(CC)c(O)cc6O)cc5)CC4)CC3)nc3c2CCN(c2cccc4cccc(Cl)c24)C3)C[C@H]1CC#N` [Compound 99, (R)-4-(4-((4-((1-(3-((4-(4-acryloyl-3-(cyanomethyl)piperazin-1-yl)-7-(8-chloronaphthalen-1-yl)-5,6,7,8-tetrahydropyrido[3,4-d]pyrimidin-2-yl)amino)propanoyl)piperidin-4-yl)methyl)piperazin-1-yl)methyl)phenyl)-5-(5-ethyl-2,4-dihydroxyphenyl)-4H-1,2,4-triazole-3-carboxamide, trifluoroacetic acid], for which the EC50 in assay [1] and in assay [2] was 100 to 1000 nM each time. The compound further came in with an IC50 on HSP90a protein of 100 to 1000 nM.
Consider `C=CC(=O)N1CCN(c2nc(NCCC(=O)NCCc3ccc(CN4CCC(Cc5ccc(-n6c(C(=O)NCC(F)(F)F)nnc6-c6cc(C(C)C)c(O)cc6O)cc5)CC4)cc3)nc3c2CCN(c2cccc4ccccc24)C3)C[C@H]1CC#N` [Compound 108, (R)-4-(4-((1-(4-(2-(3-((4-(4-acryloyl-3-(cyanomethyl)piperazin-1-yl)-7-(naphthalen-1-yl)-5,6,7,8-tetrahydropyrido[3,4-d]pyrimidin-2-yl)amino)propanamido)ethyl)benzyl)piperidin-4-yl)methyl)phenyl)-5-(2,4-dihydroxy-5-isopropylphenyl)-N-(2,2,2-trifluoroethyl)-4H-1,2,4-triazole-3-carboxamide, trifluoroacetic acid, trifluoroacetic acid, trifluoroacetic acid, trifluoroacetic …], for which the EC50 in assay [1] and in assay [2] was 100 to 1000 nM throughout. This compound had an IC50 on HSP90a protein of 100 to 1000 nM.
For the compound `C=CC(=O)N1CCN(c2nc(NCCC(=O)N3CCN(Cc4ccc(CN(C)Cc5ccc(-n6c(C(=O)NCC(F)(F)F)nnc6-c6cc(C(C)C)c(O)cc6O)cc5)cc4)CC3)nc3c2CCN(c2cccc4ccccc24)C3)C[C@H]1CC#N` [Compound 109, (R)-4-(4-(((4-((4-(3-((4-(4-acryloyl-3-(cyanomethyl)piperazin-1-yl)-7-(naphthalen-1-yl)-5,6,7,8-tetrahydropyrido[3,4-d]pyrimidin-2-yl)amino)propanoyl)piperazin-1-yl)methyl)benzyl)(methyl)amino)methyl)phenyl)-5-(2,4-dihydroxy-5-isopropylphenyl)-N-(2,2,2-trifluoroethyl)-4H-1,2,4-triazole-3-carboxamide, trifluoroacetic acid], the EC50 in assay [1] and in assay [2] was 100 to 1000 nM in each case. The compound further yielded an IC50 on HSP90a protein of 100 to 1000 nM.
In the case of `CC(=O)N1CCN(c2nc(NCCC(=O)N3CCN(Cc4ccc(CN(C)Cc5ccc(-n6c(C(=O)NCC(F)(F)F)nnc6-c6cc(C(C)C)c(O)cc6O)cc5)cc4)CC3)nc3c2CCN(c2cc(O)cc4ccccc24)C3)CC1` [Compound 115, 4-(4-(((4-((4-(3-((4-(4-acetylpiperazin-1-yl)-7-(3-hydroxynaphthalen-1-yl)-5,6,7,8-tetrahydropyrido[3,4-d]pyrimidin-2-yl)amino)propanoyl)piperazin-1-yl)methyl)benzyl)(methyl)amino)methyl)phenyl)-5-(2,4-dihydroxy-5-isopropylphenyl)-N-(2,2,2-trifluoroethyl)-4H-1,2,4-triazole-3-carboxamide, trifluoroacetic acid], the EC50 in assay [1] and in assay [2] was 100 to 1000 nM in each case. The IC50 on HSP90a protein was in the range of 100 to 1000 nM.
`CCc1cc(-c2nnc(C(=O)NCC(F)(F)F)n2-c2ccc(CN(C)Cc3ccc(CC4CCN(C(=O)CCNc5nc6c(c(N7CCN(C(C)=O)[C@H](CC#N)C7)n5)CCN(c5cccc7ccccc57)C6)CC4)cc3)cc2)c(O)cc1O` [Compound 118, (R)-4-(4-(((4-((1-(3-((4-(4-acetyl-3-(cyanomethyl)piperazin-1-yl)-7-(naphthalen-1-yl)-5,6,7,8-tetrahydropyrido[3,4-d]pyrimidin-2-yl)amino)propanoyl)piperidin-4-yl)methyl)benzyl)(methyl)amino)methyl)phenyl)-5-(5-ethyl-2,4-dihydroxyphenyl)-N-(2,2,2-trifluoroethyl)-4H-1,2,4-triazole-3-carboxamide, trifluoroacetic acid]: the EC50 in assay [1] and in assay [2] was 100 to 1000 nM in each case. The IC50 at HSP90a protein is > 1000 nM.
Take `CCC(=O)N1CCN(c2nc(NCCC(=O)N3CCC(CN4CCN(Cc5ccc(-n6c(C(=O)NC(C)C(F)(F)F)nnc6-c6cc(CC)c(O)cc6O)cc5)CC4)CC3)nc3c2CCN(c2cc(O)cc4ccccc24)C3)CC1` (stereo not shown) [Compound 119, 5-(5-ethyl-2,4-dihydroxyphenyl)-4-(4-((4-((1-(3-((7-(3-hydroxynaphthalen-1-yl)-4-(4-propionylpiperazin-1-yl)-5,6,7,8-tetrahydropyrido[3,4-d]pyrimidin-2-yl)amino)propanoyl)piperidin-4-yl)methyl)piperazin-1-yl)methyl)phenyl)-N-(1,1,1-trifluoropropan-2-yl)-4H-1,2,4-triazole-3-carboxamide, trifluoroacetic acid]: the EC50 in assay [1] and in assay [2] was 100 to 1000 nM throughout. Moreover, the IC50 at HSP90a protein fell in the range of 100 to 1000 nM.
For the compound `CCC(=O)N1CCN(c2nc(N3CCC(CN4CCN(Cc5ccc(-n6c(O)nnc6-c6cc(C(C)C)c(O)cc6O)cc5)CC4)CC3)nc3c2CCN(c2cccc4cccc(Cl)c24)C3)C[C@@H]1CC#N` [Compound 128, (S)-2-(4-(7-(8-chloronaphthalen-1-yl)-2-(4-((4-(4-(3-(2,4-dihydroxy-5-isopropylphenyl)-5-hydroxy-4H-1,2,4-triazol-4-yl)benzyl)piperazin-1-yl)methyl)piperidin-1-yl)-5,6,7,8-tetrahydropyrido[3,4-d]pyrimidin-4-yl)-1-propionylpiperazin-2-yl)acetonitrile], the EC50 in assay [1] and in assay [2] was 100 to 1000 nM throughout. The compound also yielded an IC50 at HSP90a protein of 100 to 1000 nM.
In the case of `CCc1cc(-c2nnc(O)n2-c2ccc(CN3CCN(CC4CCN(c5nc6c(c(N7CCN(C(=O)C(F)(F)F)[C@@H](CC#N)C7)n5)CCN(c5cccc7cccc(Cl)c57)C6)CC4)CC3)cc2)c(O)cc1O` [Compound 131, (S)-2-(4-(7-(8-chloronaphthalen-1-yl)-2-(4-((4-(4-(3-(5-ethyl-2,4-dihydroxyphenyl)-5-hydroxy-4H-1,2,4-triazol-4-yl)benzyl)piperazin-1-yl)methyl)piperidin-1-yl)-5,6,7,8-tetrahydropyrido[3,4-d]pyrimidin-4-yl)-1-(2,2,2-trifluoroacetyl)piperazin-2-yl)acetonitrile], the EC50 in assay [1] is 100 to 1000 nM; in assay [2], > 1000 nM. In addition, the IC50 at HSP90a protein was > 1000 nM.
Consider `C=C(F)C(=O)N1CCN(c2nc(N3CCC(N4CCN(Cc5ccc(-n6c(O)nnc6-c6cc(C(C)C)c(O)cc6O)cc5)CC4)CC3)nc3c2CCN(c2cccc4cccc(Cl)c24)C3)C[C@@H]1CC#N` [Compound 132, (S)-2-(4-(7-(8-chloronaphthalen-1-yl)-2-(4-(4-(4-(3-(2,4-dihydroxy-5-isopropylphenyl)-5-hydroxy-4H-1,2,4-triazol-4-yl)benzyl)piperazin-1-yl)piperidin-1-yl)-5,6,7,8-tetrahydropyrido[3,4-d]pyrimidin-4-yl)-1-(2-fluoroacryloyl)piperazin-2-yl)acetonitrile], for which the EC50 in assay [1] and in assay [2] was 100 to 1000 nM throughout. The IC50 at HSP90a protein is 100 to 1000 nM.
